According to ChEMBL document CHEMBL3352087 (J Med Chem, 2014):

Key:
[1] = system: CHO; assay: Ratio of IC50 for cathepsin D purified from human spleen to IC50 for purified recombinant human BACE1 expressed in CHO cells
[2] = system: MDR1 (human); assay: Apparent permeability from apical to basolateral side in pig LLC-PK1 cells transfected with human MDR1; assay type: ADME, cell-based, Sus scrofa; conditions: LLC-PK1
[3] = molecular target: T1, Beta-secretase 1 (Homo sapiens, UniProt P56817); assay: Inhibition of BACE1 in HEK293 cells expressing swedish double mutant APP assessed as amyloid beta (1 to 40) peptide level after 7 hrs by HTRF assay; assay type: cell-based
T1 sequence (P56817 whole entry): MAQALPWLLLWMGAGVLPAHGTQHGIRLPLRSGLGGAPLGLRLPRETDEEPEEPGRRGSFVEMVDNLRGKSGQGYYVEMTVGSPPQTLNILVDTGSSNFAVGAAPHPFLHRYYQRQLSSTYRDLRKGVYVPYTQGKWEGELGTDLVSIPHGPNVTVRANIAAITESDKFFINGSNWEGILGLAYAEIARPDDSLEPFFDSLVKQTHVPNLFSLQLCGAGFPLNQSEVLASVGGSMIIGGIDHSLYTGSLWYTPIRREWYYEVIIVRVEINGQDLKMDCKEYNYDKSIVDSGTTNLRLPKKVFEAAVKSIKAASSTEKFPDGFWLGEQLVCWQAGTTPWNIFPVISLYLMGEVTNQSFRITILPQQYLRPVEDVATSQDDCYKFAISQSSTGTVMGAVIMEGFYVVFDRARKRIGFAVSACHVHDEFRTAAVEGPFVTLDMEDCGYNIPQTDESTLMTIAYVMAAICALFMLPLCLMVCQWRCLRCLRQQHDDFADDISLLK

[4] = molecular target: T1, Beta-secretase 1; assay: Inhibition of purified recombinant human BACE1 expressed in CHO cells assessed as uncleaved biotinylated sAPP after 2 hrs by HTRF assay
[5] = system: MDR1 (human); assay: Efflux ratio of permeability from basolateral to apical side to apical to basolateral side in pig LLC-PK1 cells transfected with human MDR1 at 1 uM; assay type: ADME, cell-based, Sus scrofa; conditions: LLC-PK1
[6] = Systemic clearance in CD-1 mouse at 3 mg/kg, iv and 10 mg/kg, po; assay type: ADME, organism-based; conditions: in vivo, read-out: CLH
[7] = system: Mus musculus; assay: Unbound clearance in CD-1 mouse at 3 mg/kg, iv and 10 mg/kg, po; assay type: ADME, organism-based; conditions: in vivo
[8] = system: Brain; assay: Free drug level in CD-1 mouse brain at 3 mg/kg, iv and 10 mg/kg, po measured at 1 hr post dose; assay type: ADME, organism-based; conditions: in vivo
[9] = system: Brain; assay: Free drug level in CD-1 mouse brain at 3 mg/kg, iv and 10 mg/kg, po measured at 4 hrs post dose; assay type: ADME, organism-based; conditions: in vivo
[10] = system: Plasma; assay: Free plasma concentration in CD-1 mouse at 3 mg/kg, iv and 10 mg/kg, po measured at 4 hrs post dose; assay type: ADME, organism-based; conditions: in vivo
[11] = system: Plasma; assay: Free plasma concentration in CD-1 mouse at 3 mg/kg, iv and 10 mg/kg, po measured at 1 hr post dose; assay type: ADME, organism-based; conditions: in vivo
[12] = Ratio of free drug level in brain to plasma of CD-1 mouse brain at 3 mg/kg, iv and 10 mg/kg, po measured at 4 hrs post dose; assay type: ADME, organism-based; conditions: read-out: BPR
[13] = Ratio of free drug level in brain to plasma of CD-1 mouse at 3 mg/kg, iv and 10 mg/kg, po measured at 1 hr post dose; assay type: ADME, organism-based; conditions: read-out: BPR
[14] = Ratio of free drug level in brain of CD-1 mouse at 3 mg/kg, iv and 10 mg/kg, po measured at 4 hrs post dose to IC50 for BACE1 in HEK293 cells expressing swedish double mutant APP; assay type: ADME, organism-based; conditions: hek293, 4 h
[15] = Ratio of free drug level in brain of CD-1 mouse at 3 mg/kg, iv and 10 mg/kg, po measured at 1 hr post dose to IC50 for BACE1 in HEK293 cells expressing swedish double mutant APP; assay type: ADME, organism-based; conditions: hek293, 1 h
[16] = Fraction unbound in CD-1 mouse plasma; assay type: ADME, cell-free
[17] = Fraction unbound in CD-1 mouse brain; assay type: ADME, tissue-based

## C[C@]12CCCO[C@@H]1[C@]1(COC(N)=N1)c1cc(-c3cccc(C#N)c3)ccc1O2 (racemic)
[1]
  Ratio IC50: 840

## NC1=N[C@@]2(CS1)c1cc(-c3cccnc3F)ccc1O[C@@H]1CCCO[C@H]12
[2]
  Papp A→B: 37 ×10⁻⁶ cm/s
[3]
  IC50: 550 nM
[4]
  IC50: 810 nM
[5]
  efflux ratio at 1 µM: 1.2
[1]
  Ratio IC50: > 250

## C[C@]12CCCO[C@@H]1[C@]1(CSC(N)=N1)c1cc(-c3cncc(Cl)c3)ccc1O2 (relative stereo)
[2]
  Papp A→B: 12 ×10⁻⁶ cm/s
[3]
  IC50: 48 nM
[4]
  IC50: 51 nM
[5]
  efflux ratio at 1 µM: 3.3
[1]
  Ratio IC50: 1100

## CN1C(=O)[C@]2(N=C1N)c1cc(-c3cccnc3F)ccc1O[C@H]1CCOC[C@@H]12
[6]
  clearance: 70 mL/min/kg
[7]
  CL free: 330 mL/min/kg
[8]
  Drug uptake: 11 nM
[9]
  Drug uptake: 8.4 nM
[10]
  Cp(f): 75 nM
[11]
  Cp(f): 320 nM

## C[C@]12CCCO[C@@H]1[C@]1(COC(N)=N1)c1cc(-c3cncc(Cl)c3)ccc1O2 (racemic)
[2]
  Papp A→B: 25 ×10⁻⁶ cm/s
[3]
  IC50: 37 nM
[4]
  IC50: 52 nM
[5]
  efflux ratio at 1 µM: 7.1
[1]
  Ratio IC50: 2100

## CN1C(=O)[C@]2(N=C1N)c1cc(-c3cccnc3F)ccc1O[C@H]1CCCO[C@@H]12 (relative stereo)
[12]
  Kp uu at 4 h: 0.044
[13]
  Kp uu at 1 h: 0.014
[2]
  Papp A→B: 6.8 ×10⁻⁶ cm/s
[6]
  clearance: 110 mL/min/kg
[7]
  CL free: 600 mL/min/kg
[3]
  IC50: 12 nM
[14]
  Ratio: 0.13
[4]
  IC50: 48 nM
[5]
  efflux ratio at 1 µM: 31
[8]
  Drug uptake: 1.7 nM
[15]
  Ratio: 0.14
[9]
  Drug uptake: 1.6 nM
[10]
  Cp(f): 36 nM
[11]
  Cp(f): 120 nM
[1]
  Ratio IC50: 50
[16]
  fraction unbound: 0.18
[17]
  fraction unbound: 0.037

## C[C@@]12CCCO[C@H]1[C@]1(COC(N)=N1)c1cc(-c3cccnc3F)ccc1O2 (relative stereo)
[2]
  Papp A→B: 33 ×10⁻⁶ cm/s
[3]
  IC50: 130 nM
[4]
  IC50: 210 nM
[5]
  efflux ratio at 1 µM: 4.8
[1]
  Ratio IC50: 48

## C[C@]12CCCO[C@@H]1[C@]1(COC(N)=N1)c1cc(-c3cccc(C#N)c3)ccc1O2
[1]
  Ratio IC50: 1300

## C[C@]12CCCO[C@@H]1[C@]1(COC(N)=N1)c1cc(-c3cncnc3)ccc1O2 (single isomer, unassigned)
[2]
  Papp A→B: 23 ×10⁻⁶ cm/s
[3]
  IC50: 56 nM
[4]
  IC50: 89 nM
[5]
  efflux ratio at 1 µM: 9.8
[1]
  Ratio IC50: > 2200

## CN1C(=O)[C@]2(N=C1N)c1cc(-c3cccnc3F)ccc1O[C@@H]1CCCO[C@H]12 (relative stereo)
[3]
  IC50: 1900 nM
[4]
  IC50: 700 nM
[1]
  Ratio IC50: 19
